Laboratory results as given in patent US7897628B2, “Aryl carbonyl derivatives as therapeutic agents” (Novo Nordisk A/S, priority 2002, dated 2011).

Test system: glucokinase
Assay: Liver specificity: activity in isolated hepatocytes (Glucokinase Activity Assay (II)) compared to Ins-1 cells (Glucokinase Activity Assay (III))
Type: cell-based
Conditions: Glucokinase Activity Assay (II) (isolated hepatocytes) compared to Glucokinase Activity Assay (III) (Ins-1 cells)
From the text: For the purpose of describing this invention, the potential liver selectivity of a glucokinase activator may be assayed by comparison of the results obtained in response to the glucokinase activator in isolated hepatocytes and the results obtained in response to the glucokinase activator in Ins-1 cells. […] The activity of the glucokinase activator in Glucokinase Activity Assay (II) (hepatocytes) may for instance be at least 1.1 fold higher, such as at least 1.2 fold higher, for instance at least 1.3 fold higher, such as at least 1.4 fold higher, for instance 1.5 fold higher, such as at least 1.6 fold higher, for instance at least 1.7 fold higher, such as at least 1.8 fold higher, for instance at least 1.9 fold higher, such as at least 2.0 fold higher, for instance at least a 3.0 fold higher, such as at least a 4.0 fold higher, for instance at least 5.0 fold higher, such as at least 10 fold higher than the activity of the glucokinase activator in Glucokinase Activity Assay (III) (Ins-1 cells). Alternatively, the glucokinase activator may show no activity in the Ins-1 cells measured as described in the Glucokinase Activity Assay (III), while showing a significant activity in hepatocytes measured as described in the Glucokinase Activity Assay (II).

SMILES | liver specific glucokinase activator (significantly higher activity in isolated hepatocytes than in Ins-1 cells)
CCOC(=O)Cc1csc(NC(=O)Nc2cc(F)ccc2Oc2cccc(OC)c2OC)n1 [(2-{3-[2-(2,3-dimethoxyphenoxy)-5-fluorophenyl]ureido}thiazol-4-yl)acetic acid ethyl ester] | liver specific glucokinase activators
CCOC(=O)c1csc(NC(=O)Nc2cc(F)ccc2Oc2cccc(OC)c2OC)n1 [2-{3-[2-(2,3-dimethoxyphenoxy)-5-fluorophenyl]ureido}thiazole-4-carboxylic acid ethyl ester] | liver specific glucokinase activators
COc1cccc(Oc2ccc(F)cc2NC(=O)Nc2nc(C(=O)O)cs2)c1OC [2-{3-[2-(2,3-dimethoxyphenoxy)-5-fluorophenyl]ureido}thiazole-4-carboxylic acid] | liver specific glucokinase activators
COc1cccc(F)c1Oc1ccc(F)cc1NC(=O)Nc1nc(CC(=O)NCCN2CCOCC2)cs1 [2-(2-{3-[5-fluoro-2-(2-fluoro-6-methoxyphenoxy)phenyl]ureido}thiazol-4-yl)-N-(2-morpholin-4-ylethyl)acetamide] | liver specific glucokinase activators

Results, then the compound that gave them:

liver specific glucokinase activator (significantly higher activity in isolated hepatocytes than in Ins-1 cells) | SMILES
liver specific glucokinase activators | COc1cccc(F)c1Oc1ccc(F)cc1NC(=O)Nc1nc(CC(=O)NCC(=O)O)cs1 [[2-(2-{3-[5-fluoro-2-(2-fluoro-6-methoxyphenoxy)phenyl]ureido}thiazol-4-yl)acetylamino]acetic acid]
liver specific glucokinase activators | Cc1ccc(NC(=O)Nc2nc(CC(=O)O)cs2)c(C(=O)C2CCCC2)c1 [{2-[3-(2-cyclopentanecarbonyl-4-methyl-phenyl)-ureido]-thiazol-4-yl}-acetic acid]
liver specific glucokinase activators | COc1cccc(F)c1Oc1ccc(F)cc1NC(=O)Nc1nc(CC(=O)O)cs1 [(2-{3-[5-fluoro-2-(2-fluoro-6-methoxyphenoxy)phenyl]ureido}thiazol-4-yl)acetic acid]
liver specific glucokinase activators | Cc1ccc(NC(=O)Nc2nc(CC(=O)O)cs2)c(OCC(C)C)c1 [{2-[3-(4-methyl-2-[2-methylpropoxy]phenyl)-ureido]-thiazol-4-yl}-acetic acid]
